Results from a melting point compilation (Tetko et al.; mined from patent text by program, amines drawn as free bases though some values may be those of a salt).

melting point [°C]	SMILES
251	CC(C)(CO)NS(=O)(=O)c1cccc(NC(=O)c2cnn3c(C(F)(F)F)cc(-c4ccc(C(F)(F)F)c(OCC(F)(F)F)c4)nc23)c1
159 to 160	O=C1C(c2ccccc2)=C(c2ccccc2)C(=O)N1C1CCCCC1
247	Cc1cc(-c2cc(C(F)(F)F)n3ncc(-c4ccncc4)c3n2)ccc1Cl
76.3 to 77.3	COCOc1ccc(-c2ccc(OCOC)c(F)c2)cc1F
87.5 to 89.5	Nc1ccc(C(=S)SCCO)cc1
172	NS(=O)(=O)c1ccc(NC(=O)CNc2ccccc2)cc1C(F)(F)F
207 to 208	CCCn1nc2c(-c3ccccc3)cccc2c1-c1ccc(O)cc1
173 to 174	CCCc1c(OCCCOc2ccc3c(=O)cc(C(=O)O)oc3c2CCC)ccc(C(C)=O)c1O
113 to 115	COC(=O)c1ccc(N2CCCC2CO)cc1N (stereo unspecified)
142 to 146	CCCCOCCOc1ccc(-c2ccc3c(c2)C=C(C(=O)OC)CCN3c2ccc(S(=O)(=O)NC)cc2)cc1
167 to 168	Cc1ccc2oc(-c3ccccc3-c3nnn[nH]3)c(Br)c2c1
49.4	CCC(C)COc1ccc(-c2ccc(O)c(Br)c2)cc1 (stereo unspecified)
199	O=C1CNC(=O)N1c1cc(Cl)cc(Cl)c1
176 to 178	CCN1c2ncc(CCc3ccncc3)cc2C(=O)Nc2c(C)ccnc21
220 to 225	NC(=O)c1coc2ccccc2c1=O
175 to 179	Cn1cc(C(=O)NCc2ccc(Cl)cc2)c(=O)c2cc(CCCO)cc(OCCO)c21
156 to 158	O=C(Nc1ccc(Br)cc1)C(=O)N1CCC(Cc2ccc(F)cc2)CC1
80 to 81	CCOc1ccccc1C(O)c1cc(Cl)ccc1N (stereo unspecified)
158 to 159	Cc1oc(-c2ccco2)nc1COc1ccc(COc2nn(Cc3ccccc3)cc2C=O)cc1Cl
300 to 302	Cc1cccc2c3c([nH]c12)CCNC3=O
102 to 103	CC(C)c1cc(Oc2ccc(Cl)c(Cl)c2)nc(C(C)C)c1N=CN(C)C
143 to 145	CC(C)CC(NC(=O)Cc1ccc(NC(=O)Nc2ccccc2Cl)cc1)c1cc(CCC(=O)O)on1 (stereo unspecified)
193 to 197	O=C(c1ccc(SCCO)c([N+](=O)[O-])c1)c1ccc(SCCO)c([N+](=O)[O-])c1
65 to 67	COc1cnn(-c2ccc(C)cc2)n1
329 to 331	Cc1ccc(C=C2CCc3c2oc2ccc(C(=O)O)cc2c3=O)c(C)c1

melting point [°C]	SMILES
> 300	O=c1c2ccc(Cl)cc2[nH]c2c(O)nn(C3CCCc4ccccc43)c(=O)c12 (racemic)
208 to 209	CCOC(=O)Cn1c(=O)n(S(=O)(=O)c2ccc(Cl)cc2)c(=O)c2ccccc21
135	COc1ccc(N=C(N)N(C)C)c(N2CCOCC2)c1
251 to 254	CC12CCC3c4ccc(C(=O)O)cc4CCC3C1CCC2C(=O)c1ccc(F)cc1 (stereo unspecified)
179 to 181	CC(C)(C)c1ccc(C(=O)Nc2ccc(OCC(=O)O)cc2)cc1
230 to 232	O=C(CNc1ccccc1)Nc1c(Cl)ccc2nc(N3CC[C@@H](O)C3)ccc12
305 to 311	O=S1(=O)N=C(O)c2ccc(-c3ccccn3)cc21
> 300	Cc1ccc(N2CCN(c3ccc4c(ncc5c4c(=O)c(C(=O)O)cn5C)c3F)CC2)cc1F
61 to 62	CCCCCc1c(OCc2ccccc2)ccc(C(C)=O)c1O
68	CCCN(CCC)C(=O)NC(CS)Cc1ccccc1 (single isomer, unassigned; (+))
204 to 206	CC1(CCC(=O)O)CCCc2c1[nH]c1ccccc21 (stereo unspecified)
143 to 144	C#CCn1c(-c2cc(Cl)nc(Cl)c2)nc(C)c(CC)c1=O
299 to 302	CC(C)COc1ccc(-c2nc3c(C(=O)O)cccc3[nH]2)cc1C#N
71.4 to 73.2	CCCCCCCCCCCCCCSCC(O)CNCCO (stereo unspecified)
144 to 146	O=[N+]([O-])c1ccc(S(=O)(=O)c2ncc(Cl)cn2)s1
56 to 58	COc1nc(C)c(C)cc1N
132	CCN(CC)C(=O)C=Cc1cc(OC)c(OC)c(OC)c1
150 to 151	CN(CCOc1ccc(CC2SC(=O)NC2=O)cc1)c1ncccn1 (stereo unspecified)
175 to 176	CC(C)c1cccc(C(C)C)c1NC(=O)NCCN1CCN(CCSc2nc3ncccc3o2)CC1
138	CCOC(=O)N1CCc2nc3cccc(Cl)c3c(C)c2CC1
177 to 178	Fc1ccc(-c2c(-c3ccncc3)nn3nccnc23)cc1
185 to 186	CN1CCNC(=O)C1c1ccc([N+](=O)[O-])cc1 (stereo unspecified)
162 to 163	CNc1ncnc2c1ncn2CCCN1CCN(c2ccccc2)CC1
122 to 123	O=[N+]([O-])c1ccc(Sc2nccn2Cc2ccccc2)cc1
178 to 180	CCc1ccc2c(c1)C=Cc1ccccc1C2c1cn(Cc2ccc(C(=O)O)o2)c(=O)[nH]c1=O (stereo unspecified)

melting point [°C]	SMILES
201 to 202	CCCCCn1ncc2c(N)c(C(N)=O)cnc21
161	c1cc2nc3c(n2nc1N1CCCC1)CCCC3
178 to 181	Cn1c(-c2cccc(Cl)c2)cc(-c2cccc(Cl)c2)nc1=O
130 to 132	Clc1ccc(C=Cc2ccc(CBr)cc2)cc1
208 to 210	COc1cc2c(cc1OC)C1N=Cc3cc4c(cc3C1CC2)OCO4 (stereo unspecified)
36 to 37	COc1cccc(-c2cc(-c3ccoc3)on2)c1
167 to 168	CCc1nnc(CCc2ccc(NC(=O)/C=C/c3cnn(C)c3-c3ccc(F)cc3)cc2)o1
193 to 195	CC(C)(CO)NC(=O)c1n[nH]cc1NC(=O)c1ccccn1
99 to 102	Nc1c(C(=O)c2cccc(Cl)c2)[nH]c2cc(Cl)ccc12
124 to 126	N#Cc1cccc(CN2CCC(c3ccc(NC(=O)c4ccccc4-c4ccc(C(F)(F)F)cc4)cc3)CC2)c1
130 to 133	O=c1c2cc(Oc3ccc(Cl)cc3)ccc2ncn1Cc1cccnc1
56 to 58	CCCCOC(=O)C(C#N)C(=O)c1ccc(Cl)cc1[N+](=O)[O-] (stereo unspecified)
171	Cc1[nH]c(Cl)c(C#N)c1SC#N
184 to 185	CCC(=NN=C(c1ccc(Cl)cc1)c1ccc(OS(C)(=O)=O)cc1)NN=C(c1ccc(Cl)cc1)c1ccc(OS(C)(=O)=O)cc1
180 to 181	CN1OCC/C(=C\c2nc(C(C)(C)C)c(O)c(C(C)(C)C)n2)C1=O
126 to 128	CC(=O)Nc1cc(O)c(C(=O)CCCCCl)cc1Cl
113 to 115	COc1ccc(Cl)cc1C(=O)CCC(=O)O
168 to 170	COc1ccc2sc(=O)[nH]c2c1
39 to 40	CCOC(=O)CC(=O)c1ccc(F)c(Cl)c1
84.5 to 87.5	Cc1c2c(nn1-c1ccc(Cl)cc1F)CCCC2
76.6	Oc1cccc(CC2c3ccccc3CCc3ccccc32)c1
212 to 213	CC(C)Oc1cc(Oc2ccc(S(C)(=O)=O)cn2)cc2cc(C3=NCC(CC(N)=O)S3)[nH]c12 (stereo unspecified)
124	COC=C(C(=O)OC)C1(c2ccc(OC)cc2)CC=C2C=CC=C2O1 (stereo unspecified)
228	N#CC1=C(c2ccc3ccccc3c2)Nc2n[nH]cc2C1c1cccc2nonc12 (stereo unspecified)
70 to 72	CCCCc1nc2sccc2c(=O)n1CCC

melting point [°C]	SMILES
160 to 161	Nc1c(C(O)(C(F)(F)F)C(F)(F)F)ccc2cc(O)ccc12
83 to 88	O=[N+]([O-])c1cc(Cl)cc2c1OC[C@H](CO)O2
334 to 337	O=c1c2c[nH]c3ccncc3c-2nn1-c1ccccc1
132 to 134	CC(=NC(=Nc1ccccc1)N1CCOCC1)NCCO
200	COc1ccc(NC(=O)c2ccc([N+](=O)[O-])cc2)cc1
125 to 127	COc1ccc(-c2nc(Sc3ccc(Cl)c(Cl)c3)n(C3CCCCO3)c2-c2ccc(OC)cc2)cc1 (stereo unspecified)
252 to 258	O=C(O)c1cn(-c2ccc(F)cc2F)c2nc(S(=O)(=O)c3ccccc3)c(F)cc2c1=O
223	Cc1ccc(C2(c3ccccc3)OCc3c2cnc(C)c3OCC(=O)O)cc1 (stereo unspecified)
108 to 110	CC1=C(/C=C/C(C)=C/C=C/C(C)=C\C(=O)O)C(C)(C)C(O)C=C1 (stereo unspecified)
165 to 169	O=C(NC1CCCCC1)NS(=O)(=O)c1cnccc1NC1CCCCCC1
225 to 226	COC(=O)C1=C(C)NC(C)=C(P2(=O)OC(C)CC(C)O2)C1c1cccc([N+](=O)[O-])c1 (stereo unspecified)
52 to 53	N#Cc1ncccc1COc1cccc(F)c1
237	Cn1c([N+](=O)[O-])cnc1-c1nc2ccccc2n1CCN1CCOCC1
109 to 111	CCOC(=O)C1(C)Sc2ccccc2NC1=O (stereo unspecified)
98.6	COC(=O)c1cc(-c2ccc(C)cc2)n(Cc2ccc(Cl)c(Cl)c2)n1
137 to 138	COC(=O)c1cc(OC(=S)N(C)C)c2cc(-c3ccc(OC)c(C45CC6CC(CC(C6)C4)C5)c3)ccc2c1C
185 to 187	CCCCc1nc2c(N)nc3ccccc3c2n1CCCCNC(=O)Nc1ccccc1
136 to 137	CCCC(C)C(=O)Nc1cccc(O)c1 (stereo unspecified)
93 to 94	COc1c(Br)cc(N)cc1C(C)=O
210	COc1cccc(S)c1S(=O)(=O)NC(C)(C)C
143 to 146	CCOC(=O)c1cc(N)c(N)nc1C(=O)OCC
229 to 231	CCOCc1nc2c(N)nc3ccccc3c2n1CC(C)(C)CS(N)(=O)=O

SMILES	melting point [°C]
Cc1ncc([N+](=O)[O-])n1CCN(CCCCN(CCn1c([N+](=O)[O-])cnc1C)CCn1c([N+](=O)[O-])cnc1C)CCn1c([N+](=O)[O-])cnc1C	194 to 196
CCOC1=CC2=CCC3C4CC(C)(C)C(=O)C4(C)CCC3C2(C)CC1 (stereo unspecified)	133 to 137
CC1(O)C=CC2C3CCC4=CC(=O)CCC4C3C(c3ccc(-c4cccnc4)cc3)CC21C (stereo unspecified)	159
CC(C)(C)OC(=O)NC1N=C(c2ccccc2F)c2ccccc2N(CCO)C1=O (racemic)	200
